Results from patent US20230405316A1, “COMPOSITIONS, SYSTEMS, AND METHODS FOR TREATING CANCER USING TUMOR TREATING FIELDS AND VEGF INHIBITORS” (Novocure Gmbh, priority 2022, published 2023).
Where a name gives a salt, the structure may show the parent alone.

Key:
VEGFR-1 = VEGFR-1 (Homo sapiens, UniProt P17948); details: cited from earlier work
VEGFR-3 = VEGFR-3 (Homo sapiens, UniProt P35916); details: cited from earlier work
VEGFR-2 = VEGFR-2 (Homo sapiens, UniProt P35968); details: cited from earlier work
[1] = test system: ovarian carcinoma cell line (A2780); test: Concomitant therapy with TTFields and lenvatinib, cell count and apoptosis; type: cell-based; details: A2780 cells, 4 μM Lenvatinib combined with TTFields vs either therapy alone
Method: FIG. 5 contains photomicrographs of A2780 cells following TTFields treatment alone, treatment with 4 μM Lenvatinib, and concomitant therapy with both TTFields and 4 μM Lenvatinib.
In particular, the combinatorial effect of TTFields and lenvatinib was examined in an ovarian carcinoma cell line (A2780).

Chain of VEGFR-3 (P35916 25-1363, species assumed): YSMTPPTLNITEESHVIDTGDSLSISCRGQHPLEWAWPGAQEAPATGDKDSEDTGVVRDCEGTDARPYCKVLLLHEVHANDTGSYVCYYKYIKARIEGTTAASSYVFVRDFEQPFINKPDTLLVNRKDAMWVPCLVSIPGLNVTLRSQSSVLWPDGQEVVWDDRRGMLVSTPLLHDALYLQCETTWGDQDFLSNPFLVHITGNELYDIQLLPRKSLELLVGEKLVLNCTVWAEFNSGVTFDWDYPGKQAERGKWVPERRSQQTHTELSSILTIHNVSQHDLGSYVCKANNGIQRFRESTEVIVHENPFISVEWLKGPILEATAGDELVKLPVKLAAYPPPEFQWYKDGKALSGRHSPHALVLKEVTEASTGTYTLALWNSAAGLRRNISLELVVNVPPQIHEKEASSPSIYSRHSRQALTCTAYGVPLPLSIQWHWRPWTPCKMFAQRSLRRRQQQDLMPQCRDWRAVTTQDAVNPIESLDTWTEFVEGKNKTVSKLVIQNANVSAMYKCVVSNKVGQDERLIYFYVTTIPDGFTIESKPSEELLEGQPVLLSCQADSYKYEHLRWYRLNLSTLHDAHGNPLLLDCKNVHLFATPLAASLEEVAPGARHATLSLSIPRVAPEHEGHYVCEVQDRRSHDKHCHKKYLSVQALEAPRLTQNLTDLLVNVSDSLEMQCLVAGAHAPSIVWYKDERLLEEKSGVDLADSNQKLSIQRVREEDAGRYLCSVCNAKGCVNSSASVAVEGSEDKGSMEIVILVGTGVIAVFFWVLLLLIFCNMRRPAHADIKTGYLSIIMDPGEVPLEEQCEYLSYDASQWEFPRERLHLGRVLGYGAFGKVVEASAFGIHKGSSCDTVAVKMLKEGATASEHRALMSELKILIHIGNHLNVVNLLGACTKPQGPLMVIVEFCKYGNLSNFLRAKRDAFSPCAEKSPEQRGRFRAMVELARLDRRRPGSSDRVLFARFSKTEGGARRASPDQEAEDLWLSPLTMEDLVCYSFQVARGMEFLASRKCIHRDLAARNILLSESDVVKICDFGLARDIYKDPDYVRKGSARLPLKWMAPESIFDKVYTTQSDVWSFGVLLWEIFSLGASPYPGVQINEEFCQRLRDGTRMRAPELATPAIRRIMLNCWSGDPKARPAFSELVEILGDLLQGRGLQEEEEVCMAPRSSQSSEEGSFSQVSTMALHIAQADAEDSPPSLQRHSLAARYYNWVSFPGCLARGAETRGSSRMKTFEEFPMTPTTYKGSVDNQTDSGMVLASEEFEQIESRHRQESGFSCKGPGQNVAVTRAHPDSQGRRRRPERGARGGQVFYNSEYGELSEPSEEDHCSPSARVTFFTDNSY
Chain of VEGFR-2 (P35968 20-1356, species assumed): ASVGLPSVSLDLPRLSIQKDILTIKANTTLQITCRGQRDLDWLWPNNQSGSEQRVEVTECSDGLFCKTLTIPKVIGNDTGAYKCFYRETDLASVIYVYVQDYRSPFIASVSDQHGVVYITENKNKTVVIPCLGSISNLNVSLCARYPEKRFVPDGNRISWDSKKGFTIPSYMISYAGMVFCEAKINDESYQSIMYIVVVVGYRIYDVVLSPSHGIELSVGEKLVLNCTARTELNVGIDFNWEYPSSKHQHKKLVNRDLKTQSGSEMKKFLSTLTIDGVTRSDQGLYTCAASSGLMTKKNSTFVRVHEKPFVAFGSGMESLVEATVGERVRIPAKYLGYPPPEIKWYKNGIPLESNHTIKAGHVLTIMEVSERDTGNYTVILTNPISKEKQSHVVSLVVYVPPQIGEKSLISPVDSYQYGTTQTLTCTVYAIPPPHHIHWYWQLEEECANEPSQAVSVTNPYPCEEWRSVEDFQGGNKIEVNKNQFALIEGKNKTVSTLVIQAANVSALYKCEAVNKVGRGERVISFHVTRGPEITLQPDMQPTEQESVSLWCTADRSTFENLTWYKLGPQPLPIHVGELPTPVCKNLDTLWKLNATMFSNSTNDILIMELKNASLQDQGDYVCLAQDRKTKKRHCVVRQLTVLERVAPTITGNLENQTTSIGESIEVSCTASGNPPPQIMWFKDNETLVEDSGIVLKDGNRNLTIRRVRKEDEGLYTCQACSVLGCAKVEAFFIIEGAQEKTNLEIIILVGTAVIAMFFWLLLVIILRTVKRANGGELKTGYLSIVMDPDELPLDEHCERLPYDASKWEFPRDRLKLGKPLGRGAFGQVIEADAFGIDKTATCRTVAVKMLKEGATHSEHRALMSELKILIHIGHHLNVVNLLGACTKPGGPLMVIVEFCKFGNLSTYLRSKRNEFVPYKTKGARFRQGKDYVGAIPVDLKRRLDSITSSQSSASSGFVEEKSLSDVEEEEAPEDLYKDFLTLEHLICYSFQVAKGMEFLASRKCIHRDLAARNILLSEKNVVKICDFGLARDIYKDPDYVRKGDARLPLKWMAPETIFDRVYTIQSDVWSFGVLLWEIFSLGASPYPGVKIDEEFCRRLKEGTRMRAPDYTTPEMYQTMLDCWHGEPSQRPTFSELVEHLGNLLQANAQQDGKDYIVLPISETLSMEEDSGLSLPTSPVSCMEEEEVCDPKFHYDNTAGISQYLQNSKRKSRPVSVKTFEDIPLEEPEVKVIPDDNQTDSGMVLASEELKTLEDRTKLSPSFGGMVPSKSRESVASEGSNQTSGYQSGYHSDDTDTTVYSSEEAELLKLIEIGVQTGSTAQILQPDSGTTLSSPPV
Chain of VEGFR-1 (P17948 27-1338, species assumed): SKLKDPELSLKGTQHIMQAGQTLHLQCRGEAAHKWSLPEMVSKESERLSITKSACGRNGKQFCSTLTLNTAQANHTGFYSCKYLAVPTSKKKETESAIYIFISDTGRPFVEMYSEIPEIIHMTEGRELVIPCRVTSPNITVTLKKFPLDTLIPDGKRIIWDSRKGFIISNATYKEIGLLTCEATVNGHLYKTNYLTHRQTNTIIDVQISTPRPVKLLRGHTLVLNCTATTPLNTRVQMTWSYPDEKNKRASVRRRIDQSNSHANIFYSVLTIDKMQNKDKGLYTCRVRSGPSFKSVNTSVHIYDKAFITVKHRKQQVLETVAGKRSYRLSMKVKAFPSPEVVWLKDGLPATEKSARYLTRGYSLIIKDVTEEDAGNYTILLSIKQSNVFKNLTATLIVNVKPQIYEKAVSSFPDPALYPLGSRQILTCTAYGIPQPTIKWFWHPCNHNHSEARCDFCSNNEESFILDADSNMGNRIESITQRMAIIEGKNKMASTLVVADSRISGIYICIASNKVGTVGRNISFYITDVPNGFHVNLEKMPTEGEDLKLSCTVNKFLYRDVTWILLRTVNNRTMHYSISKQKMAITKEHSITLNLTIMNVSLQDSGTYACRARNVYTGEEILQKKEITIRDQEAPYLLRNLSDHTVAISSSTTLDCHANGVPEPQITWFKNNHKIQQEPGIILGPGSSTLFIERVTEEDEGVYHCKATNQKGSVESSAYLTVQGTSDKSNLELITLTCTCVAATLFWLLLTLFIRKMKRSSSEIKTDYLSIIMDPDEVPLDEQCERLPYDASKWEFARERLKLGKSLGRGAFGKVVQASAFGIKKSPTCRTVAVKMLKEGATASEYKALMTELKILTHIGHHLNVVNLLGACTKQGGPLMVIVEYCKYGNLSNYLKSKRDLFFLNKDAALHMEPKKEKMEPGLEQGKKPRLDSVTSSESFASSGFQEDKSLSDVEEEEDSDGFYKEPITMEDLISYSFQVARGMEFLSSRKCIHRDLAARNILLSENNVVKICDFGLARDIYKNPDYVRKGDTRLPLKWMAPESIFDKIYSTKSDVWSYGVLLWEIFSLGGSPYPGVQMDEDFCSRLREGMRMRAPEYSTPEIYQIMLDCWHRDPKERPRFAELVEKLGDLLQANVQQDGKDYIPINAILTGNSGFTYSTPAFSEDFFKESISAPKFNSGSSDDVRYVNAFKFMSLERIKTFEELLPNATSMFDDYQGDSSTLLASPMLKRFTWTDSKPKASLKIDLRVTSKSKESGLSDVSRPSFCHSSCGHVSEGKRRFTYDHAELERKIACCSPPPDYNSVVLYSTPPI

## COc1cc2c(Oc3ccc4[nH]c(C)cc4c3F)ccnc2cc1OCC1(N)CC1 [Anlotinib]
VEGFR-1
  IC50 for VEGFR-1: Does not bind
VEGFR-3
  IC50 for VEGFR-3: Does not bind
VEGFR-2
  IC50: < 1 nM

## COc1cc2nccc(Oc3ccc(NC(=O)C4(C(=O)Nc5ccc(F)cc5)CC4)cc3)c2cc1OC [Cabozantinib]
VEGFR-3
  IC50 for VEGFR-3: Does not bind

## COc1cc2nccc(Oc3ccc(NC(=O)Nc4ccc(F)cc4F)c(F)c3)c2cc1OC [Ki8751]
VEGFR-2
  IC50: 0.9 nM

## COc1cc2nccc(Oc3ccc(NC(=O)NC4CC4)c(Cl)c3)c2cc1C(N)=O [Lenvatinib]
[1]
  effect of concomitant therapy on apoptosis: enhanced effect over either therapy alone
  effect of concomitant therapy on cell count: enhanced effect over either therapy alone

## Cc1c(C(=O)Nc2ccc(Oc3ccnc4cc(OCC(C)(C)O)ccc34)c(F)c2)c(=O)n(-c2ccccc2)n1C [Ningetinib]
VEGFR-2
  IC50: 1.9 nM

## Cn1cc(-c2ccc3c(c2)ncn3-c2cc(NS(=O)(=O)C3CC3)cc(-c3ccc(F)cc3F)c2)cn1 [ODM-203]
VEGFR-1
  IC50: 26 nM
VEGFR-3
  IC50: 5 nM
VEGFR-2
  IC50: 9 nM

## COc1cc2c(cc1F)C(c1ccccc1Cl)=Nc1c(n[nH]c1C)N2 [R1530]
VEGFR-2
  IC50: 10 nM

## Cc1[nH]c(/C=C2\C(=O)Nc3ccc(F)cc32)c(C)c1C(=O)NC[C@H](O)CN1CCOCC1 [SU14813]
VEGFR-1
  IC50: 2 nM
VEGFR-2
  IC50: 50 nM

## CNC(=O)c1cc2c(Oc3ccc(NC(=O)C4(C(=O)Nc5ccc(F)cc5)CC4)cc3)ccnc2cc1OC [XL092]
VEGFR-2
  IC50: 1.6 nM

## Cc1cc(F)c(Nc2ncnc3cc(OCc4ccccc4)ccc23)cc1O [ZM 323881 HCl]
VEGFR-2
  IC50: < 2 nM
